Laboratory results published in patent US20170281507A1, “Peptides and Their Use in the Treatment of Skin” (AVON PRODUCTS, INC., priority 2014, published 2017).
Peptide text beside a SMILES is read from it.

Tested on: Human dermal fibroblast cells
Experiment: Hyaluronic acid (HA) production in human dermal fibroblast cells, HA ELISA of the media
Format: cell-based
Conditions: percent change of HA production relative to vehicle control, peptide concentration 0.001%, 48h treatment in DMEM media without FBS, secreted HA in media
Description: Human dermal fibroblast cells were grown in a 96 well plate in DMEM media (available from Corning, N.Y.) supplemented with 10% Fetal Bovine Serum (FBS) and L-glutamine (0.07×10^5 cells/plate). After reaching about 75% confluence, cells were transferred into DMEM media without FBS and incubated for 4-6 hours. Next, cells were treated with peptide of Formula I at 0.00001%, 0.0001%, 0.001% final concentration in DMEM media without FBS for 48h. After treatment the media were collected, and cell viability was measured using MTT. Amount of secreted Hyaluronic Acid (HA) was tested in the media using HA Elisa kit (available from Corgenix, Broomfield, Colo.).
Results are summarized in Table 1 below as percent change of HA production relative to vehicle control: […]

## CC(N)C(=O)NC(CCC(=O)O)C(=O)NC(CS)C(=O)NC(CCCCN)C(=O)O (stereo not drawn) [AECK (SEQ ID NO: 1), Ala-Glu-Cys-Lys] (H-AECK-OH; configuration not given here)
  Increase in HA Production: +90-150%
Listed as peptide of Formula I
  Increase in HA Production: 90-150%
